{"source": "PubChem BioAssay (NCI)", "assay_in_all_cases": "NCI-60 cell line screen, 48 h", "key": {"[1]": {"tested_on": "DU-145 prostate"}, "[2]": {"tested_on": "A498 renal"}, "[3]": {"tested_on": "U251 CNS"}, "[4]": {"tested_on": "T-47D breast"}, "[5]": {"tested_on": "BT-549 breast"}, "[6]": {"tested_on": "NCI/ADR-RES ovarian"}, "[7]": {"tested_on": "SF-268 CNS"}, "[8]": {"tested_on": "HOP-92 NSCLC"}, "[9]": {"tested_on": "HT29 colon"}, "[10]": {"tested_on": "NCI-H226 lung"}, "[11]": {"tested_on": "LOX IMVI melanoma"}, "[12]": {"tested_on": "SR leukemia"}, "[13]": {"tested_on": "HS 578T breast"}, "[14]": {"tested_on": "SK-MEL-2 melanoma"}, "[15]": {"tested_on": "ACHN renal"}, "[16]": {"tested_on": "MDA-MB-435"}, "[17]": {"tested_on": "SK-MEL-5 melanoma"}, "[18]": {"tested_on": "OVCAR-4 ovarian"}, "[19]": {"tested_on": "IGROV1 ovarian"}, "[20]": {"tested_on": "SK-OV-3 ovarian"}, "[21]": {"tested_on": "RXF 393 renal"}, "[22]": {"tested_on": "MDA-N"}, "[23]": {"tested_on": "NCI-H460 lung"}, "[24]": {"tested_on": "OVCAR-5 ovarian"}, "[25]": {"tested_on": "UACC-257 melanoma"}, "[26]": {"tested_on": "HL-60(TB) leukemia"}, "[27]": {"tested_on": "SW-620 colon"}, "[28]": {"tested_on": "RPMI-8226 leukemia"}, "[29]": {"tested_on": "MCF7 breast"}, "[30]": {"tested_on": "MOLT-4 leukemia"}, "[31]": {"tested_on": "SNB-19 CNS"}, "[32]": {"tested_on": "CAKI-1 renal"}, "[33]": {"tested_on": "M14 melanoma"}, "[34]": {"tested_on": "PC-3 prostate"}, "[35]": {"tested_on": "COLO 205 colon"}, "[36]": {"tested_on": "OVCAR-8 ovarian"}, "[37]": {"tested_on": "KM12 colon"}, "[38]": {"tested_on": "786-0 renal"}, "[39]": {"tested_on": "SK-MEL-28 melanoma"}, "[40]": {"tested_on": "UO-31 renal"}, "[41]": {"tested_on": "TK-10 renal"}, "[42]": {"tested_on": "A549 NSCLC"}, "[43]": {"tested_on": "HCT-116 colon"}, "[44]": {"tested_on": "SF-295 CNS"}, "[45]": {"tested_on": "NCI-H522 lung"}, "[46]": {"tested_on": "SN12C renal"}, "[47]": {"tested_on": "EKVX NSCLC"}, "[48]": {"tested_on": "CCRF-CEM leukemia"}, "[49]": {"tested_on": "HCC-2998 colon"}, "[50]": {"tested_on": "MALME-3M melanoma"}, "[51]": {"tested_on": "HCT-15 colon"}, "[52]": {"tested_on": "UACC-62 melanoma"}, "[53]": {"tested_on": "MDA-MB-231 breast"}, "[54]": {"tested_on": "NCI-H23 lung"}, "[55]": {"tested_on": "HOP-62 NSCLC"}}, "note": "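The compound was tested at five concentrations on cells cultured in 96-well plates, with a 48-hour exposure period. TGI marks complete inhibition of growth.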", "data": [{"smiles": "C=CC[C@H](C)CCC(=O)N1[C@H]2CC3CC[C@@]2(CS1(=O)=O)C3(C)C", "values": [{"measurement": "TGI", "setting": "[1]", "result": "> 100", "unit": "µM"}, {"measurement": "TGI", "setting": "[2]", "result": "> 100", "unit": "µM"}, {"measurement": "TGI", "setting": "[3]", "result": "> 100", "unit": "µM"}, {"measurement": "TGI", "setting": "[4]", "result": "> 100", "unit": "µM"}, {"measurement": "TGI", "setting": "[5]", "result": "> 100", "unit": "µM"}, {"measurement": "TGI", "setting": "[6]", "result": "> 100", "unit": "µM"}, {"measurement": "TGI", "setting": "[7]", "result": "> 100", "unit": "µM"}, {"measurement": "TGI", "setting": "[8]", "result": "> 100", "unit": "µM"}, {"measurement": "TGI", "setting": "[9]", "result": 49, "unit": "µM"}, {"measurement": "TGI", "setting": "[10]", "result": "> 100", "unit": "µM"}, {"measurement": "TGI", "setting": "[11]", "result": 83, "unit": "µM"}, {"measurement": "TGI", "setting": "[12]", "result": "> 100", "unit": "µM"}, {"measurement": "TGI", "setting": "[13]", "result": "> 100", "unit": "µM"}, {"measurement": "TGI", "setting": "[14]", "result": "> 100", "unit": "µM"}, {"measurement": "TGI", "setting": "[15]", "result": "> 100", "unit": "µM"}, {"measurement": "TGI", "setting": "[16]", "result": "> 100", "unit": "µM"}, {"measurement": "TGI", "setting": "[17]", "result": 51.3, "unit": "µM"}, {"measurement": "TGI", "setting": "[18]", "result": "> 100", "unit": "µM"}, {"measurement": "TGI", "setting": "[19]", "result": "> 100", "unit": "µM"}, {"measurement": "TGI", "setting": "[20]", "result": "> 100", "unit": "µM"}, {"measurement": "TGI", "setting": "[21]", "result": "> 100", "unit": "µM"}, {"measurement": "TGI", "setting": "[22]", "result": "> 100", "unit": "µM"}, {"measurement": "TGI", "setting": "[23]", "result": "> 100", "unit": "µM"}, {"measurement": "TGI", "setting": "[24]", "result": "> 100", "unit": "µM"}, {"measurement": "TGI", "setting": "[25]", "result": "> 100", "unit": "µM"}, {"measurement": "TGI", "setting": "[26]", "result": 57.3, "unit": "µM"}, {"measurement": "TGI", "setting": "[27]", "result": "> 100", "unit": "µM"}, {"measurement": "TGI", "setting": "[28]", "result": "> 100", "unit": "µM"}, {"measurement": "TGI", "setting": "[29]", "result": "> 100", "unit": "µM"}, {"measurement": "TGI", "setting": "[30]", "result": 68.1, "unit": "µM"}, {"measurement": "TGI", "setting": "[31]", "result": "> 100", "unit": "µM"}, {"measurement": "TGI", "setting": "[32]", "result": "> 100", "unit": "µM"}, {"measurement": "TGI", "setting": "[33]", "result": "> 100", "unit": "µM"}, {"measurement": "TGI", "setting": "[34]", "result": "> 100", "unit": "µM"}, {"measurement": "TGI", "setting": "[35]", "result": "> 100", "unit": "µM"}, {"measurement": "TGI", "setting": "[36]", "result": "> 100", "unit": "µM"}, {"measurement": "TGI", "setting": "[37]", "result": "> 100", "unit": "µM"}, {"measurement": "TGI", "setting": "[38]", "result": "> 100", "unit": "µM"}, {"measurement": "TGI", "setting": "[39]", "result": "> 100", "unit": "µM"}, {"measurement": "TGI", "setting": "[40]", "result": "> 100", "unit": "µM"}, {"measurement": "TGI", "setting": "[41]", "result": "> 100", "unit": "µM"}, {"measurement": "TGI", "setting": "[42]", "result": "> 100", "unit": "µM"}, {"measurement": "TGI", "setting": "[43]", "result": "> 100", "unit": "µM"}, {"measurement": "TGI", "setting": "[44]", "result": "> 100", "unit": "µM"}, {"measurement": "TGI", "setting": "[45]", "result": 99, "unit": "µM"}, {"measurement": "TGI", "setting": "[46]", "result": "> 100", "unit": "µM"}, {"measurement": "TGI", "setting": "[47]", "result": "> 100", "unit": "µM"}, {"measurement": "TGI", "setting": "[48]", "result": 59.2, "unit": "µM"}, {"measurement": "TGI", "setting": "[49]", "result": "> 100", "unit": "µM"}, {"measurement": "TGI", "setting": "[50]", "result": "> 100", "unit": "µM"}, {"measurement": "TGI", "setting": "[51]", "result": 74.9, "unit": "µM"}, {"measurement": "TGI", "setting": "[52]", "result": "> 100", "unit": "µM"}, {"measurement": "TGI", "setting": "[53]", "result": "> 100", "unit": "µM"}, {"measurement": "TGI", "setting": "[54]", "result": "> 100", "unit": "µM"}, {"measurement": "TGI", "setting": "[55]", "result": "> 100", "unit": "µM"}]}]}
